Drawing on US20240294551A1 (AMGEN INC., priority 2022, published 2024), this text covers IC50 for eleven compounds.

Assay [1] has as its target GDP-bound KRAS protein (aa 1-169), containing both G12D and C118A amino acid substitutions (Homo sapiens (Human), UniProt P01116, C118A/G12D). Put plainly: KRAS G12D Coupled Nucleotide Exchange Assay. It is filed as biochemical. Conditions: read-out: KRAS G12D Coupled Exchange IC50.
Assay [2] deals with AsPC-1 cells. Put plainly: AsPC-1 CTG Assay (CellTiter-Glo cell viability). The class given is cell-based, human. Conditions: Homo sapiens, ASPC1, 72 h, AsPC-1, 72 h; first value of the cell; read-out: G12D/C/V Cell Proliferation CTG (72 h) AsPC-1. The procedure, abridged: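 IC50 values derive from 4-parameter logistic fits of CellTiter-Glo luminescence, expressed relative to DMSO. Compound dilution series were applied to overnight-seeded AsPC-1 or SW620 cells (RPMI 1640, 10% FBS) for 72 h at 37 °C, 5% CO2.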
For orientation: ATP-based viability assays read luminescence as a measure of living cells.

Assay [3] deals with Phosphorylation of ERK1/2 in AsPC-1 cells. Put plainly: Phospho-ERK1/2 MSD Assay. It is filed as cell-based, human. Conditions: Homo sapiens, ASPC1, 2 h, read-out: 2 h p-ERK (AsPC-1 cells), IC50. The procedure, abridged:
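Read-out: MSD electrochemiluminescent detection of phosphorylated ERK1/2 in whole-cell lysates, fitted to a 4-parameter logistic curve for IC50. Prior to lysis, AsPC-1 cells (25,000 per well) received a 2 h compound dose-response at 37 °C.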

The target of assay [4] is His-tagged KRAS G12D protein (Homo sapiens (Human), UniProt P01116, G12D). Kind of assay: KRAS G12D TR-FRET Assay. The class given is binding. The conditions noted are these: read-out: KRAS G12D Binding IC50. The gist of the method:
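Each incubation ran at room temperature: enzyme with compound for 30 minutes, peptide for one hour, and detection reagents (0.4 nM europium anti-6×His, 5 nM streptavidin-d2) for one hour more. Protein and peptide stocks were each diluted to 20 nM before addition.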
On the technique in general: Time-resolved FRET reads energy transfer from a long-lived donor to a nearby acceptor.

Assay [5] concerns MIA PaCa-2 cells. Put plainly: MIA PaCa-2 CTG Assay (CellTiter-Glo cell viability). The class given is cell-based, human. The conditions noted are these: Homo sapiens; Mia PaCa-2, 72 h; second value of the cell; read-out: G12D/C/V Cell Proliferation CTG (72 h) Mia PaCa-2. The procedure, abridged: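 IC50 values come from a 4-parameter logistic fit of CellTiter-Glo luminescence, normalized to DMSO control, after 72 h compound exposure at 37° C, 5% CO2. Cells grew in RPMI 1640 plus 10% FBS and were seeded at 1.67E+04 cells/mL one night before dosing.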

Chain of GDP-bound KRAS protein (aa 1-169), containing both G12D and C118A amino acid substitutions (P01116 other isoform, or with tags, fused parts or gaps G12D/C118A): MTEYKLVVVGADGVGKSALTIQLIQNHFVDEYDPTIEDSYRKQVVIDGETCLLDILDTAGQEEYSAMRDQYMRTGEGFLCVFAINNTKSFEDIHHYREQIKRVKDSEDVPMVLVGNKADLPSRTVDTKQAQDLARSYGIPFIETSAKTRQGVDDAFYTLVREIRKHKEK
Chain of His-tagged KRAS G12D protein (P01116 other isoform, or with tags, fused parts or gaps G12D): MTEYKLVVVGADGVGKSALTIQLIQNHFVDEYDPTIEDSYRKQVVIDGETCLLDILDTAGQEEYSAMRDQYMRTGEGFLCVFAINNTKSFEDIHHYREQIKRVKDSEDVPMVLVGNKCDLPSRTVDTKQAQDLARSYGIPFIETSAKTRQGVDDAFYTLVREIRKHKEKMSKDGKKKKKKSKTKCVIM

As to `Cc1cc2[nH]ncc2c2c1CCOC(=O)O[C@H]1C[C@@]3(CCCN(C3)c3nc(OC[C@@H]4C[C@@H](F)CN4C)nc4c(F)c-2ncc34)C1` [Example 321, (1S,3R)-32-fluoro-24-(((2S,4R)-4-fluoro-1-methyl-2-pyrrolidinyl)methoxy)-10-methyl-4,6-dioxa-13,14,19,23,25,27-hexaazaheptacyclo[25.3.1.1~1,3~.1~18,22~.0~9,17~.0~12,16~.0~21,26~]tritriaconta-9,11,14,16,18(32),19,21,23,25-nonaen-5-one], the IC50 in assay [1] is 0.002 µM; in assay [2], 0.186 µM; in assay [3], 0.025 µM; in assay [4], 0.005 µM; in assay [5] it was 0.162 µM.
`CN1[C@H](COc2nc3c4cnc(c(F)c4n2)-c2c(c(Cl)cc4[nH]ncc24)CCCOC(=O)O[C@@H]2COCCN3C2)C[C@H]2C[C@H]21` [Example 329, (26S)-18-chloro-32-fluoro-4-(((1R,3S,5R)-2-methyl-2-azabicyclo[3.1.0]hexan-3-yl)methoxy)-23,25,28-trioxa-1,3,5,9,14,15-hexaazahexacyclo[24.4.1.1~6,10~.0~2,7~.0~11,19~.0~12,16~]dotriaconta-2,4,6,8,10(32),11,13,16,18-nonaen-24-one]: the IC50 in assay [1] is 0.007 µM; in assay [2] it was 0.402 µM; in assay [3], 0.206 µM; in assay [4], 0.014 µM; in assay [5], 0.53 µM.
Turning to `CN1[C@H](COc2nc3c4cnc(c(F)c4n2)-c2c(c(Cl)cc4[nH]ncc24)CCCOC(=O)O[C@@H]2COCCN3C2)C[C@@H]2C[C@@H]21` [Example 330, (26S)-18-chloro-32-fluoro-4-(((1S,3S,5S)-2-methyl-2-azabicyclo[3.1.0]hexan-3-yl)methoxy)-23,25,28-trioxa-1,3,5,9,14,15-hexaazahexacyclo[24.4.1.1~6,10~.0~2,7~.0~11,19~.0~12,16~]dotriaconta-2,4,6,8,10(32),11,13,16,18-nonaen-24-one], the IC50 in assay [1] turned out to be 0.002 µM; in assay [2], 0.128 µM; in assay [3] it was 0.02 µM; in assay [4], 0.004 µM; in assay [5], 0.054 µM.
For `CN1CCC[C@H]1COc1nc2c3cnc(c(F)c3n1)-c1c(c(Cl)cc3[nH]ncc13)CCCOC(=O)O[C@]1(CF)COCCN2C1` [Example 338, (26S)-18-chloro-32-fluoro-26-(fluoromethyl)-4-(((2S)-1-methyl-2-pyrrolidinyl)methoxy)-23,25,28-trioxa-1,3,5,9,14,15-hexaazahexacyclo[24.4.1.1~6,10~.0~2,7~.0~11,19~.0~12,16~]dotriaconta-2,4,6,8,10(32),11,13,16,18-nonaen-24-one], in that order: 0.002 µM, 0.268 µM, 0.0415 µM, 0.007 µM and 0.035 µM.
In the case of `O=C1OCCCc2c(Cl)cc3[nH]ncc3c2-c2ncc3c(nc(OC[C@@]45CCCN4C[C@H](F)C5)nc3c2F)N2CCCC[C@](CF)(C2)O1` [Example 340, (26R)-18-chloro-32-fluoro-26-(fluoromethyl)-4-(((2R,7aS)-2-fluorotetrahydro-1H-pyrrolo[1,2-a]pyrrol-7a(5H)-yl)methoxy)-23,25-dioxa-1,3,5,9,14,15-hexaazahexacyclo[24.4.1.1~6,10~.0~2,7~.0~11,19~.0~12,16~]dotriaconta-2,4,6,8,10(32),11,13,16,18-nonaen-24-one], the IC50 in assay [1] was 0.001 µM; in assay [2] it was 0.042 µM; in assay [3] it was 0.0025 µM; in assay [4], 0.004 µM; in assay [5] it was 0.017 µM.
For `[2H]C([2H])([2H])[C@@]12COCCN(C1)c1nc(OC[C@@]34CCCN3C[C@H](F)C4)nc3c(F)c(ncc13)-c1c(c(Cl)cc3[nH]ncc13)CCCOC(=O)O2` [Example 353, (26S)-18-chloro-32-fluoro-4-(((2R,7aS)-2-fluorotetrahydro-1H-pyrrolo[1,2-a]pyrrol-7a(5H)-yl)methoxy)-26-(~2~H_3_)methyl-23,25,28-trioxa-1,3,5,9,14,15-hexaazahexacyclo[24.4.1.1~6,10~.0~2,7~.0~11,19~.0~12,16~]dotriaconta-2,4,6(32),7,9,11,13,16,18-nonaen-24-one], in that order: 0.001 µM, 0.022 µM, 0.0019 µM, 0.003 µM and 0.003 µM.
On to `C[C@@]12COCCN(C1)c1nc(OC[C@@]34CCCN3C[C@@H](F)C4)nc3c(F)c(ncc13)-c1c(c(Cl)cc3[nH]ncc13)CCCOC(=O)O2` [Example 359, (26S)-18-chloro-32-fluoro-4-(((25,7aS)-2-fluorotetrahydro-1H-pyrrolo[1,2-a]pyrrol-7a(5H)-yl)methoxy)-26-methyl-23,25,28-trioxa-1,3,5,9,14,15-hexaazahexacyclo[24.4.1.1~6,10~.0~2,7~.0~11,19~.0~12,16~]dotriaconta-2,4,6(32),7,9,11,13,16,18-nonaen-24-one], for which the IC50 in assay [1] was determined as 0.004 µM; in assay [2] it was 0.41 µM; in assay [3], 0.101 µM; in assay [4] it was 0.012 µM; in assay [5] it was 0.107 µM.
On to `O=C1OCCCc2c(Cl)cc3[nH]ncc3c2-c2ncc3c(nc(OC[C@@]45CCCN4C[C@@H](F)C5)nc3c2F)N2CCOC[C@H](C2)O1` [Example 360, (26S)-18-chloro-32-fluoro-4-(((25,7aS)-2-fluorotetrahydro-1H-pyrrolo[1,2-a]pyrrol-7a(5H)-yl)methoxy)-23,25,28-trioxa-1,3,5,9,14,15-hexaazahexacyclo[24.4.1.1~6,10~.0~2,7~.0~11,19~.0~12,16~]dotriaconta-2,4,6(32),7,9,11,13,16,18-nonaen-24-one], for which the IC50 turned out to be 0.003 µM in assay [1]; 0.457 µM in assay [2]; 0.118 µM in assay [3]; 0.01 µM in assay [4]; 0.344 µM in assay [5].
Regarding `O=C1OCCc2c(F)ccc3cc(O)cc(c23)-c2ncc3c(nc(OC[C@@]45CCCN4C[C@H](F)C5)nc3c2F)N2CCOC[C@H](C2)O1` [Example 361, (16S)-23,32-difluoro-8-(((2R,7aS)-2-fluorotetrahydro-1H-pyrrolo[1,2-a]pyrrol-7a(5H)-yl)methoxy)-28-hydroxy-14,17,19-trioxa-3,7,9,11-tetraazahexacyclo[20.7.1.1~2,6~.1~11,16~.0~5,10~.0~26,30~]dotriaconta-1(30),2(32),3,5,7,9,22,24,26,28-decaen-18-one], the IC50 in assay [1] turned out to be 0.001 µM; in assay [2] it was 0.007 µM; in assay [3], 0.0004 µM; in assay [4], 0.003 µM; in assay [5] it was 0.005 µM.
Regarding `C[C@@]12COCCN(C1)c1nc(OC[C@@]34CCCN3C[C@H](F)C4)nc3c(F)c(ncc13)-c1c3c(cc4[nH]ncc14)CC[C@H]3CCOC(=O)O2` [Example 365, (16S,22S)-34-fluoro-8-(((2R,7aS)-2-fluorotetrahydro-1H-pyrrolo[1,2-a]pyrrol-7a(5H)-yl)methoxy)-16-methyl-14,17,19-trioxa-3,7,9,11,28,29-hexaazaheptacyclo[20.9.1.1~2,6~.1~11,16~.0~5,10~.0~25,32~.0~27,31~]tetratriaconta-1(31),2(34),3,5,7,9,25(32),26,29-nonaen-18-one], the IC50 stood at 0.001 µM in assay [1]; 0.141 µM in assay [2]; 0.0067 µM in assay [3]; 0.003 µM in assay [4]; 0.011 µM in assay [5].
Take `O=C1OCC[C@@H]2CCc3cc4[nH]ncc4c(c32)-c2ncc3c(nc(OC[C@@]45CCCN4C[C@H](F)C5)nc3c2F)N2CCOC[C@H](C2)O1` [Example 367, (16S,22S)-34-fluoro-8-(((2R,7aS)-2-fluorotetrahydro-1H-pyrrolo[1,2-a]pyrrol-7a(5H)-yl)methoxy)-14,17,19-trioxa-3,7,9,11,28,29-hexaazaheptacyclo[20.9.1.1~2,6~.1~11,16~.0~5,10~.0~25,32~.0~27,31~]tetratriaconta-1(31),2(34),3,5,7,9,25(32),26,29-nonaen-18-one]: the IC50 in assay [1] amounted to 0.002 µM; in assay [2], 0.139 µM; in assay [3], 0.0092 µM; in assay [4] it was 0.004 µM; in assay [5] it was 0.026 µM.
